# Patent US20220324835A1 (Nurix Therapeutics, Inc., priority 2018, published 2022)
# Key:
# [1] = biological target: T1, Cbl-b (Homo sapiens, UniProt Q13191); test: Cbl-b inhibition assay (Cbl-b activity assay, FRET, Biological Example 1; 100 mM NaCl, 60 nM Src kinase); format: biochemical; conditions: upper bound stated in text lists; read-out: IC50 values in the Cbl-b inhibition assay of Biological Example 1
# In short: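 N-terminally biotinylated Avi-tagged Cbl-b was mixed with Src kinase, UbcH5B covalently conjugated to Bodipy-fluorescein ubiquitin, and streptavidin-terbium. Src phosphorylation lets Cbl-b bind UbcH5B-Ub, giving terbium-fluorescein FRET; inhibition is read as loss of FRET signal.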
# [2] = test system: T-cell; test: IL-2 secretion from T-cells co-stimulated with anti-CD3 and anti-CD28 antibody (Biological Example 2); format: cell-based, human; conditions: Homo sapiens, T-cell, fold change over baseline, primary human total T-cells, read-out: IL-2 secretion Anti-CD3/Anti-CD28 stimulation; for fold induction at 0.3 µM: 0.3 μM Cbl-b inhibitor; for fold induction at 1 µM: 1 μM Cbl-b inhibitor; for fold induction at 4 µM: 4 μM Cbl-b inhibitor
# In short: (§1)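 No assay protocol given; T-cells stimulated with anti-CD3 alone or anti-CD3 plus anti-CD28, with or without Cbl-b inhibitor. Activation read as IL-2 secretion or CD25 surface staining, expressed as fold over baseline from uninhibited cells […].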
# [3] = test system: T-cell; test: CD25 cell surface staining on T-cells co-stimulated with anti-CD3 and anti-CD28 antibody (Biological Example 2); format: cell-based, human; conditions: Homo sapiens, T-cell, fold change over baseline, primary human total T-cells, read-out: CD25 staining Anti-CD3/Anti-CD28 stimulation; for fold induction at 0.3 µM: 0.3 μM Cbl-b inhibitor; for fold induction at 1 µM: 1 μM Cbl-b inhibitor; for fold induction at 4 µM: 4 μM Cbl-b inhibitor
# In short: as §1
# [4] = biological target: T1, Cbl-b; test: Cbl-b activity assay (Cbl-b inhibition assay), TR-FRET of Cbl-b interaction with UbcH5B-Ub; format: biochemical; conditions: assay buffer with 100 mM NaCl, 60 nM Src kinase; read-out: Cbl-b activity IC50
# In short: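 TR-FRET readout of Cbl-b binding to Bodipy-fluorescein N-terminally labeled Ub conjugated to UbcH5B C85K, measured with compound present. After compound incubation, 60 nM Src kinase with 1 mM ATP and 5 mM MgCl2 (final) was added for 1.5 h, then a further 1 h incubation; asterisked values used 50 mM NaCl buffer and 30 nM Src.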
# [5] = biological target: Cbl-b (residues 36-427) (Homo sapiens, UniProt Q13191); test: Cbl-b binding assay (SPR, Biacore T200); conditions: 20° C., 1:1 binding model
# In short: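 Affinities derived from global 1:1 steady-state or kinetic fits of double-referenced, solvent-corrected SPR data, 20 °C, NeutrAvidin-capture chip. Compound series (top 100 or 50 μM, 8–10 points) injected 50 s, 90–180 s dissociation. Asterisked values used 50 mM instead of 100 mM NaCl and 30 nM Src kinase.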
# Sequence of Cbl-b (residues 36-427) (Q13191 36-427): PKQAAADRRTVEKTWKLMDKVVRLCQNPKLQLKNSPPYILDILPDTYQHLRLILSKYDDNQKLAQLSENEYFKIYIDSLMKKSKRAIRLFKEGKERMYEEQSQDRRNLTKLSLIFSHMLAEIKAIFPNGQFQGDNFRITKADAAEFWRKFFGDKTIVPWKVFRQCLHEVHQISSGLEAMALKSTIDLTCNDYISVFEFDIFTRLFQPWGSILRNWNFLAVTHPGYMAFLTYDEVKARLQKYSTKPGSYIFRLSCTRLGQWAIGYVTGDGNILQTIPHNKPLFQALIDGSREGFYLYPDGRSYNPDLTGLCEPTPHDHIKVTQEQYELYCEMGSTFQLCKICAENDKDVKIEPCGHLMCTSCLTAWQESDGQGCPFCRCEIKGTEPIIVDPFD
# T1 sequence (Q13191 36-427): as above
SMILES,IC50 [1] [nM],fold induction at 0.3 µM [2],fold induction at 1 µM [2],fold induction at 4 µM [2],fold induction at 0.3 µM [3],fold induction at 1 µM [3],fold induction at 4 µM [3],IC50 [4] [nM],Kd [5] [nM]
"Cn1cnnc1[C@@H]1C[C@@H]1c1cccc(NC(=O)c2nc3c(C(F)(F)F)cccc3[nH]2)c1 [Compound 332, N-(3-((1S,2R)-2-(4-methyl-4H-1,2,4-triazol-3-yl)cyclopropyl)phenyl)-4-(trifluoromethyl)-1H-benzo[d]imidazole-2-carboxamide]",≤ 300,1.01 to 2.5,1.01 to 2.5,2.51 to 5,1.01 to 1.3,1.01 to 1.3,1.01 to 1.3,100 to 300,301 to 1000
"C[C@H](Cc1nncn1C)c1cccc(NC(=O)c2cncc(C(F)(F)F)n2)c1 [Compound 189, (R)-N-(3-(1-(4-methyl-4H-1,2,4-triazol-3-yl)propan-2-yl)phenyl)-6-(trifluoromethyl)pyrazine-2-carboxamide]",≤ 500,1.01 to 2.5,2.51 to 5,5 to 7.5,> 1.76,> 1.76,> 1.76,100 to 300,301 to 1000
"C[C@H](Sc1nncn1C)c1ccnc(NC(=O)c2cc(Cl)cc(C(F)(F)F)n2)c1 [Compound 105, (S)-4-chloro-N-(4-(1-((4-methyl-4H-1,2,4-triazol-3-yl)thio)ethyl)pyridin-2-yl)-6-(trifluoromethyl)picolinamide]",≤ 1000,1.01 to 2.5,1.01 to 2.5,< 1,1.01 to 1.3,1.01 to 1.3,< 1,301 to 1000,1000 to 3000
